Measured values from publication PMC8745178, “Methyl 2-Halo-4-Substituted-5-Sulfamoyl-Benzoates as High Affinity and Selective Inhibitors of Carbonic Anhydrase IX” (International Journal of Molecular Sciences, 2021).

Columns and labels:
CAIII = CAIII (Homo sapiens, UniProt P07451); assay: fluorescent thermal shift assay (FTSA), CAIII; format: binding; settings: 37 °C; for ΔGintr CAIII: converted from Kd_intr, independent of pH; for ΔGobs CAIII: converted from Kd_obs, pH 7.0, FTSA
CAI = CAI (Homo sapiens, UniProt P00915); assay: fluorescent thermal shift assay (FTSA), CAI; format: binding; settings: 37 °C; for ΔGintr CAI: converted from Kd_intr, independent of pH; for ΔGobs CAI: converted from Kd_obs, pH 7.0, FTSA
Sequence of CAI (P00915 whole entry): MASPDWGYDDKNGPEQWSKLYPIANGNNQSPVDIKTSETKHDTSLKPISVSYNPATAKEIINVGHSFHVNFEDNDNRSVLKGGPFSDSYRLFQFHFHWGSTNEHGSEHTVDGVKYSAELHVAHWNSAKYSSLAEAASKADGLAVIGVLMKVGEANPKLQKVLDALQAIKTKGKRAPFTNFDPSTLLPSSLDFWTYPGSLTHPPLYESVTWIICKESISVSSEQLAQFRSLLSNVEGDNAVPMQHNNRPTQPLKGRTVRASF

CAVII = CAVII (Homo sapiens, UniProt P43166); assay: fluorescent thermal shift assay (FTSA), CAVII; format: binding; settings: 37 °C; for ΔGintr CAVII: converted from Kd_intr, independent of pH; for ΔGobs CAVII: converted from Kd_obs, pH 7.0, FTSA
Sequence of CAVII (P43166 whole entry): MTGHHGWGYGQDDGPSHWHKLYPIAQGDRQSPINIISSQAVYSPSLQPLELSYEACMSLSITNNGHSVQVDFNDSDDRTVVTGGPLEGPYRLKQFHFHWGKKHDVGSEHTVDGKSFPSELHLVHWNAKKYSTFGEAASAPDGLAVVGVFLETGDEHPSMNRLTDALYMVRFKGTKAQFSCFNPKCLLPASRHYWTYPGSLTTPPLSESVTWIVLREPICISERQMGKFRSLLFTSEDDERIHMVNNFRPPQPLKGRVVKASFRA

CAVA = CAVA (Homo sapiens, UniProt P35218); assay: fluorescent thermal shift assay (FTSA), CAVA; format: binding; settings: 37 °C; for ΔGintr CAVA: converted from Kd_intr, independent of pH; for ΔGobs CAVA: converted from Kd_obs, pH 7.0, FTSA
Sequence of CAVA (P35218 39-305): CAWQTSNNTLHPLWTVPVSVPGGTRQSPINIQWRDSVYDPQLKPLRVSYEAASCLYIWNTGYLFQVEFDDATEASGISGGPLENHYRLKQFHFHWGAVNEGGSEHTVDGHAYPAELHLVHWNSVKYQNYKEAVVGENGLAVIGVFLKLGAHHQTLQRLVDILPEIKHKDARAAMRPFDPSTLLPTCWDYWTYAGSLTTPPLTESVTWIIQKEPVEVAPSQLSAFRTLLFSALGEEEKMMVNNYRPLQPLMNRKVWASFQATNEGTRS

CAXIV = CAXIV (Homo sapiens, UniProt Q9ULX7); assay: fluorescent thermal shift assay (FTSA), CAXIV; format: binding; settings: 37 °C; for ΔGintr CAXIV: converted from Kd_intr, independent of pH; for ΔGobs CAXIV: converted from Kd_obs, pH 7.0, FTSA
Sequence of CAXIV (Q9ULX7 16-337): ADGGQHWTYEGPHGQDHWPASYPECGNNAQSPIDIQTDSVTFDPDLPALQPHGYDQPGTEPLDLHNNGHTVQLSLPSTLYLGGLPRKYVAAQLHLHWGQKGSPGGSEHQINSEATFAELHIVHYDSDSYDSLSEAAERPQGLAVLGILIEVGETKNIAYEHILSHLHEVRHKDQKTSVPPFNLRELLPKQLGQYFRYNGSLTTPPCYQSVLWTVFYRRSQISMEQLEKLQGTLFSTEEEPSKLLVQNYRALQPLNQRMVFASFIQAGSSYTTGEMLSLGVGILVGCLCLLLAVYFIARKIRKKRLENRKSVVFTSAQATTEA

[1] = determination of pKa of the sulfonamide group by UV-VIS spectra at various pH; format: physicochemical; settings: for f RSO2NH-, fraction of deprotonated sulfonamide: at pH 7.0, calculated from pKa; for pKa: calculated from spectra at various pH, 37 °C
CAXIII = CAXIII (Homo sapiens, UniProt Q8N1Q1); assay: fluorescent thermal shift assay (FTSA), CAXIII; format: binding; settings: 37 °C; for ΔGobs CAXIII: converted from Kd_obs, pH 7.0, FTSA; for ΔGintr CAXIII: converted from Kd_intr, independent of pH
Sequence of CAXIII (Q8N1Q1 whole entry): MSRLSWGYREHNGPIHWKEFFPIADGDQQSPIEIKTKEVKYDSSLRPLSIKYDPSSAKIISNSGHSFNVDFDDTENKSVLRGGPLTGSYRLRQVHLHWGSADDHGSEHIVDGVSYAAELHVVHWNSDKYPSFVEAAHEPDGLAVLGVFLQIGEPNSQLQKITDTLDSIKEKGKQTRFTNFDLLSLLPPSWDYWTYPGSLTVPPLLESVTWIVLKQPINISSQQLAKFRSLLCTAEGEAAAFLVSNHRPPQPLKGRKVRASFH

CAIX = CAIX (Homo sapiens, UniProt Q16790); assay: fluorescent thermal shift assay (FTSA), CAIX; format: binding; settings: for ΔGobs CAIX: pH 7
CAIV = CAIV (Homo sapiens, UniProt P22748); assay: fluorescent thermal shift assay (FTSA), CAIV; format: binding; settings: 37 °C; for ΔGintr CAIV: converted from Kd_intr, independent of pH; for ΔGobs CAIV: converted from Kd_obs, pH 7.0, FTSA
Sequence of CAIV (P22748 19-312): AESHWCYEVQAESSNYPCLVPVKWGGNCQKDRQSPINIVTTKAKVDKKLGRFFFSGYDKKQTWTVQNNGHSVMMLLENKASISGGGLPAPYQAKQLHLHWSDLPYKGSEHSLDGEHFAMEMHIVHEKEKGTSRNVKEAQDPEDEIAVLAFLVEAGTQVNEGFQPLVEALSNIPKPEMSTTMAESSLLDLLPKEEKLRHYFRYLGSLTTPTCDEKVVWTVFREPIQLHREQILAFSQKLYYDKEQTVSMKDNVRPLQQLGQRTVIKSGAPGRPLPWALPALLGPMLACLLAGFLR

CAVB = CAVB (Homo sapiens, UniProt Q9Y2D0); assay: fluorescent thermal shift assay (FTSA), CAVB; format: binding; settings: 37 °C; for ΔGintr CAVB: converted from Kd_intr, independent of pH; for ΔGobs CAVB: converted from Kd_obs, pH 7.0, FTSA
Sequence of CAVB (Q9Y2D0 34-317): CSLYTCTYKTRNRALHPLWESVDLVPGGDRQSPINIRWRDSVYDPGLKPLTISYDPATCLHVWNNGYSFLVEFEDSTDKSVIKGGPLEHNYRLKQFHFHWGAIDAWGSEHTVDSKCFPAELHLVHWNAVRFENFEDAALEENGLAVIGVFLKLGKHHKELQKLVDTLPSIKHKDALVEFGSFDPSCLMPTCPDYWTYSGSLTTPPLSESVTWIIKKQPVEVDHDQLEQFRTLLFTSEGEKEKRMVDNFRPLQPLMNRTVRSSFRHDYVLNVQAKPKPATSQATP

CAVI = CAVI (Homo sapiens, UniProt P23280); assay: fluorescent thermal shift assay (FTSA), CAVI; format: binding; settings: 37 °C; for ΔGintr CAVI: converted from Kd_intr, independent of pH; for ΔGobs CAVI: converted from Kd_obs, pH 7.0, FTSA
Sequence of CAVI (P23280 18-308): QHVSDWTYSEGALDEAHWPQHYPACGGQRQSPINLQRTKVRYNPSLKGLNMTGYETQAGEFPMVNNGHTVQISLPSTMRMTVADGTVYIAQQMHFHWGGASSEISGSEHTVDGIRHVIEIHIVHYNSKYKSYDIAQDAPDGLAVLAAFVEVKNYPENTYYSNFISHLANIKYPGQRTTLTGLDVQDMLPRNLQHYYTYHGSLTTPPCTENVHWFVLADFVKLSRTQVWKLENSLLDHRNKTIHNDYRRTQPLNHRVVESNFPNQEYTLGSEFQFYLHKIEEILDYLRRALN

CAXII = CAXII (Homo sapiens, UniProt O43570); assay: fluorescent thermal shift assay (FTSA), CAXII; format: binding; settings: 37 °C; for ΔGintr CAXII: converted from Kd_intr, independent of pH; for ΔGobs CAXII: converted from Kd_obs, pH 7.0, FTSA
Sequence of CAXII (O43570 25-354): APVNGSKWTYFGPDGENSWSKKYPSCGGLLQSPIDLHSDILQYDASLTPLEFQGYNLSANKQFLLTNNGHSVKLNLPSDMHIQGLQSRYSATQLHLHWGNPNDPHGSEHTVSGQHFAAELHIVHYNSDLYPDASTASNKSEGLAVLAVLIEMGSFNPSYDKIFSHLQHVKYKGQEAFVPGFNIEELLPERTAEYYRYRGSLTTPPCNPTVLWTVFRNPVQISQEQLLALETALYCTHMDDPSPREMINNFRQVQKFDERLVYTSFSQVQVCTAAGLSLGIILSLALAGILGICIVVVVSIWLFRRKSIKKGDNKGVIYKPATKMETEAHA

CAII = CAII (Homo sapiens, UniProt P00918); assay: fluorescent thermal shift assay (FTSA), CAII; format: binding; settings: 37 °C; for ΔGintr CAII: converted from Kd_intr, independent of pH; for ΔGobs CAII: converted from Kd_obs, pH 7.0, FTSA
[2] = solubility observed visually and in absorption spectra; format: physicochemical; set-up: key: low solubility, LS

Sequence of CAIII (P07451 whole entry): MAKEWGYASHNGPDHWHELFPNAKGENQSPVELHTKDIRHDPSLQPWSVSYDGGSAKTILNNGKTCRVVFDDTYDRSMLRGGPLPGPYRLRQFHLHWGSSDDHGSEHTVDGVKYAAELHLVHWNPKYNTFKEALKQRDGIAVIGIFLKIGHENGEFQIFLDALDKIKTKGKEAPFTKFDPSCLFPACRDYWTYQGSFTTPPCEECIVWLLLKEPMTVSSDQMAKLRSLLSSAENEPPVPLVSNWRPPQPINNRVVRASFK

Structure (SMILES): COC(=O)c1cc(S(N)(=O)=O)c(Cl)cc1Cl [Compound 1, Methyl 2,4-dichloro-5-sulfamoyl-benzoate]
- ΔGintr CAIII (CAIII): -9.68 kcal/mol
- ΔGobs CAIII (CAIII): -6.09 kcal/mol
- ΔGintr CAI (CAI): -9.63 kcal/mol
- ΔGobs CAI (CAI): -6.88 kcal/mol
- ΔGintr CAVII (CAVII): -13.5 kcal/mol
- ΔGobs CAVII (CAVII): -10.2 kcal/mol
- ΔGintr CAVA (CAVA): -10.3 kcal/mol
- ΔGobs CAVA (CAVA): -7.34 kcal/mol
- ΔGintr CAXIV (CAXIV): -13.4 kcal/mol
- ΔGobs CAXIV (CAXIV): -10.1 kcal/mol
- f RSO2NH-, fraction of deprotonated sulfonamide [1]: 1.2%
- pKa [1]: 8.9
- ΔGobs CAXIII (CAXIII): -10 kcal/mol
- ΔGintr CAIX (CAIX): -13.7 kcal/mol
- ΔGobs CAIX (CAIX): -10.3 kcal/mol
- ΔGintr CAIV (CAIV): -13 kcal/mol
- ΔGobs CAIV (CAIV): -9.56 kcal/mol
- ΔGintr CAVB (CAVB): -12.4 kcal/mol
- ΔGobs CAVB (CAVB): -9.23 kcal/mol
- ΔGintr CAVI (CAVI): -13.8 kcal/mol
- ΔGobs CAVI (CAVI): -9.61 kcal/mol
- ΔGintr CAXII (CAXII): -12.2 kcal/mol
- ΔGobs CAXII (CAXII): -8.87 kcal/mol
- ΔGintr CAII (CAII): -13.3 kcal/mol
- ΔGobs CAII (CAII): -10.1 kcal/mol

Structure (SMILES): COC(=O)c1cc(S(N)(=O)=O)c(Br)cc1Br [Compound 2, Methyl 2,4-dibromo-5-sulfamoyl-benzoate]
- ΔGintr CAIII (CAIII): ≥ -8.7 kcal/mol
- ΔGobs CAIII (CAIII): ≥ -5.26 kcal/mol
- ΔGintr CAI (CAI): -9.27 kcal/mol
- ΔGobs CAI (CAI): -6.67 kcal/mol
- ΔGintr CAVII (CAVII): -13.5 kcal/mol
- ΔGobs CAVII (CAVII): -10.3 kcal/mol
- ΔGintr CAXIV (CAXIV): -13.6 kcal/mol
- ΔGobs CAXIV (CAXIV): -10.5 kcal/mol
- f RSO2NH-, fraction of deprotonated sulfonamide [1]: 1.6%
- pKa [1]: 8.8
- ΔGintr CAXIII (CAXIII): -12.8 kcal/mol
- ΔGobs CAXIII (CAXIII): -10.2 kcal/mol
- ΔGintr CAIX (CAIX): -13.2 kcal/mol
- ΔGobs CAIX (CAIX): -9.85 kcal/mol
- ΔGintr CAVB (CAVB): -13.6 kcal/mol
- ΔGobs CAVB (CAVB): -10.6 kcal/mol
- ΔGintr CAVI (CAVI): -13.3 kcal/mol
- ΔGobs CAVI (CAVI): -9.3 kcal/mol
- ΔGintr CAXII (CAXII): -12.3 kcal/mol
- ΔGobs CAXII (CAXII): -9.2 kcal/mol
- ΔGintr CAII (CAII): -13 kcal/mol
- ΔGobs CAII (CAII): -9.99 kcal/mol

Structure (SMILES): COC(=O)c1cc(S(N)(=O)=O)c(Cl)cc1Sc1cccc2ccccc12 [Compound 5f, Methyl 4-chloro-2-(1-naphthylsulfanyl)-5-sulfamoyl-benzoate]
- ΔGintr CAIII (CAIII): ≥ -9.54 kcal/mol
- ΔGobs CAIII (CAIII): ≥ -5.26 kcal/mol
- ΔGintr CAI (CAI): -9.94 kcal/mol
- ΔGobs CAI (CAI): -6.5 kcal/mol
- ΔGobs CAVII (CAVII): -8.46 kcal/mol
- ΔGintr CAVA (CAVA): -9.37 kcal/mol
- ΔGobs CAVA (CAVA): -5.71 kcal/mol
- ΔGintr CAXIV (CAXIV): -9.94 kcal/mol
- ΔGobs CAXIV (CAXIV): -5.95 kcal/mol
- solubility [2]: LS
- f RSO2NH-, fraction of deprotonated sulfonamide [1]: 0.4%
- ΔGintr CAXIII (CAXIII): -13.7 kcal/mol
- ΔGobs CAXIII (CAXIII): -10.3 kcal/mol
- ΔGintr CAIX (CAIX): -15.1 kcal/mol
- ΔGobs CAIX (CAIX): -10.9 kcal/mol
- ΔGintr CAIV (CAIV): -10.1 kcal/mol
- ΔGobs CAIV (CAIV): -5.93 kcal/mol
- ΔGintr CAVB (CAVB): -12.8 kcal/mol
- ΔGobs CAVB (CAVB): -8.91 kcal/mol
- ΔGintr CAVI (CAVI): -11.8 kcal/mol
- ΔGobs CAVI (CAVI): -6.88 kcal/mol
- ΔGintr CAII (CAII): -13.8 kcal/mol
- ΔGobs CAII (CAII): -9.87 kcal/mol

Structure (SMILES): COC(=O)c1cc(S(N)(=O)=O)c(S(=O)(=O)C2CCCCC2)cc1Cl [Compound 7b, Methyl 2-chloro-4-cyclohexylsulfonyl-5-sulfamoylbenzoate]
- ΔGintr CAIII (CAIII): -10.5 kcal/mol
- ΔGobs CAIII (CAIII): -5.66 kcal/mol
- ΔGintr CAI (CAI): -9.7 kcal/mol
- ΔGobs CAI (CAI): -5.66 kcal/mol
- ΔGintr CAVII (CAVII): ≥ -9.8 kcal/mol
- ΔGobs CAVII (CAVII): ≥ -5.26 kcal/mol
- ΔGintr CAVA (CAVA): -9.89 kcal/mol
- ΔGobs CAVA (CAVA): -5.66 kcal/mol
- ΔGintr CAXIV (CAXIV): -10.5 kcal/mol
- ΔGobs CAXIV (CAXIV): -5.9 kcal/mol
- f RSO2NH-, fraction of deprotonated sulfonamide [1]: 0.2%
- pKa [1]: 9.8
- ΔGobs CAXIII (CAXIII): -5.9 kcal/mol
- ΔGintr CAIX (CAIX): -11.9 kcal/mol
- ΔGobs CAIX (CAIX): -7.15 kcal/mol
- ΔGintr CAVB (CAVB): -10.1 kcal/mol
- ΔGobs CAVB (CAVB): -5.66 kcal/mol
- ΔGintr CAVI (CAVI): -10.7 kcal/mol
- ΔGobs CAVI (CAVI): -5.28 kcal/mol
- ΔGintr CAXII (CAXII): -10.5 kcal/mol
- ΔGobs CAXII (CAXII): -5.93 kcal/mol
- ΔGintr CAII (CAII): -10.6 kcal/mol
- ΔGobs CAII (CAII): -6.09 kcal/mol

Structure (SMILES): COC(=O)c1cc(S(N)(=O)=O)c(S(=O)(=O)C2CCCCC2)cc1Br [Compound 8b, Methyl 2-bromo-4-cyclohexylsulfonyl-5-sulfamoylbenzoate]
- ΔGintr CAIII (CAIII): ≥ -10.3 kcal/mol
- ΔGobs CAIII (CAIII): ≥ -5.26 kcal/mol
- ΔGintr CAI (CAI): ≥ -9.42 kcal/mol
- ΔGobs CAI (CAI): ≥ -5.26 kcal/mol
- ΔGintr CAVII (CAVII): ≥ -9.94 kcal/mol
- ΔGobs CAVII (CAVII): ≥ -5.26 kcal/mol
- ΔGintr CAVA (CAVA): ≥ -9.61 kcal/mol
- ΔGobs CAVA (CAVA): ≥ -5.26 kcal/mol
- ΔGintr CAXIV (CAXIV): ≥ -9.94 kcal/mol
- ΔGobs CAXIV (CAXIV): ≥ -5.26 kcal/mol
- f RSO2NH-, fraction of deprotonated sulfonamide [1]: 0.1%
- pKa [1]: 9.9
- ΔGintr CAXIII (CAXIII): -10.1 kcal/mol
- ΔGobs CAXIII (CAXIII): -5.88 kcal/mol
- ΔGintr CAIX (CAIX): -51.2
- ΔGobs CAIX (CAIX): -7.34 kcal/mol
- ΔGintr CAIV (CAIV): -11 kcal/mol
- ΔGobs CAIV (CAIV): -6.17 kcal/mol
- ΔGintr CAVB (CAVB): ≥ -9.8 kcal/mol
- ΔGobs CAVB (CAVB): ≥ -5.26 kcal/mol
- ΔGintr CAVI (CAVI): ≥ -10.9 kcal/mol
- ΔGobs CAVI (CAVI): ≥ -5.26 kcal/mol
- ΔGintr CAXII (CAXII): ≥ -9.94 kcal/mol
- ΔGobs CAXII (CAXII): ≥ -5.26 kcal/mol
- ΔGintr CAII (CAII): ≥ -9.87 kcal/mol
- ΔGobs CAII (CAII): ≥ -5.26 kcal/mol

Structure (SMILES): COC(=O)c1cc(S(N)(=O)=O)c(Cl)cc1S(=O)(=O)Cc1ccccc1 [Compound 9c, Methyl 2-benzylsulfonyl-4-chloro-5-sulfamoylbenzoate]
- ΔGintr CAIII (CAIII): -11.6 kcal/mol
- ΔGobs CAIII (CAIII): -9.01 kcal/mol
- ΔGintr CAI (CAI): -10.7 kcal/mol
- ΔGobs CAI (CAI): -8.87 kcal/mol
- ΔGobs CAVII (CAVII): -12.2 kcal/mol
- ΔGintr CAXIV (CAXIV): -14.5 kcal/mol
- ΔGobs CAXIV (CAXIV): -12.2 kcal/mol
- f RSO2NH-, fraction of deprotonated sulfonamide [1]: 5.9%
- pKa [1]: 8.2
- ΔGintr CAXIII (CAXIII): -13.6 kcal/mol
- ΔGobs CAXIII (CAXIII): -11.8 kcal/mol
- ΔGobs CAIX (CAIX): -12.2 kcal/mol
- ΔGintr CAIV (CAIV): -12.5 kcal/mol
- ΔGobs CAIV (CAIV): -9.94 kcal/mol
- ΔGintr CAVB (CAVB): -14.9 kcal/mol
- ΔGobs CAVB (CAVB): -12.7 kcal/mol
- ΔGintr CAVI (CAVI): -14.3 kcal/mol
- ΔGobs CAVI (CAVI): -11.1 kcal/mol
- ΔGintr CAXII (CAXII): -13.2 kcal/mol
- ΔGobs CAXII (CAXII): -10.9 kcal/mol
- ΔGintr CAII (CAII): -14 kcal/mol
- ΔGobs CAII (CAII): -11.8 kcal/mol

Structure (SMILES): COC(=O)c1cc(S(N)(=O)=O)c(Cl)cc1S(=O)(=O)c1cccc2ccccc12 [Compound 9f, Methyl 4-chloro-2-(1-naphthylsulfonyl)-5-sulfamoylbenzoate]
- ΔGintr CAI (CAI): -11.8 kcal/mol
- ΔGobs CAI (CAI): -9.7 kcal/mol
- ΔGintr CAVII (CAVII): -15.6 kcal/mol
- ΔGobs CAVII (CAVII): -13 kcal/mol
- ΔGintr CAXIV (CAXIV): -14.5 kcal/mol
- ΔGobs CAXIV (CAXIV): -11.9 kcal/mol
- f RSO2NH-, fraction of deprotonated sulfonamide [1]: 3.8%
- pKa [1]: 8.4
- ΔGintr CAXIII (CAXIII): -14.7 kcal/mol
- ΔGobs CAXIII (CAXIII): -12.6 kcal/mol
- ΔGobs CAIX (CAIX): -11.4 kcal/mol
- ΔGintr CAIV (CAIV): -13.1 kcal/mol
- ΔGobs CAIV (CAIV): -10.3 kcal/mol
- ΔGintr CAVB (CAVB): -14.5 kcal/mol
- ΔGobs CAVB (CAVB): -12 kcal/mol
- ΔGintr CAVI (CAVI): -13.4 kcal/mol
- ΔGobs CAVI (CAVI): -9.94 kcal/mol
- ΔGintr CAXII (CAXII): -13 kcal/mol
- ΔGobs CAXII (CAXII): -10.4 kcal/mol
- ΔGintr CAII (CAII): -15.2 kcal/mol
- ΔGobs CAII (CAII): -12.6 kcal/mol
